Reference: ChEMBL document CHEMBL1146067, “Free radical scavenging and antioxidant activities of substituted hexahydropyridoindoles. Quantitative structure-activity relationships” (J Med Chem, 2006)

Test system: Radical scavenging activity
Experiment: Antioxidant activity in unilamellar DOPC liposomes
Format: functional, subcellular, Liposome

Row | Structure (SMILES) | Log IC50
1 | COc1ccc2c(c1)[C@H]1CN(C)CC[C@H]1N2 | -4.48
2 | COc1c(C)cc2c(c1C)[C@@H]1CN(C(=O)OCc3ccccc3)CC[C@@H]1N2 (racemic) | -5.48
3 | Cc1cc2c(c([N+](=O)[O-])c1)N[C@H]1CCN(C)C[C@@H]21 (racemic) | -4.58
4 | Cc1c(Br)cc2c(c1C)N[C@H]1CCN(C(=O)OCc3ccccc3)C[C@@H]21 (racemic) | -5.53
5 | CCCCOC(=O)N1CC[C@@H]2Nc3cc(C)c(OC)c(C)c3[C@@H]2C1 (racemic) | -5.35
6 | COc1c(C)cc2c(c1C)[C@@H]1CN(C(=O)OCC(C)C)CC[C@@H]1N2 (racemic) | -5.19
7 | CCOC(=O)N1CC[C@@H]2Nc3cc(C)c(OC)c(C)c3[C@@H]2C1 (racemic) | -4.7
8 | COC(=O)N1CC[C@@H]2Nc3c(Br)c(C)c(OC)c(C)c3[C@@H]2C1 (racemic) | -4.71
9 | Cc1cc(C)c2c(c1)[C@@H]1CN(C(=O)OCc3ccccc3)CC[C@@H]1N2 (racemic) | -5.36
10 | Cc1cc(N)c2c(c1)[C@@H]1CN(C)CC[C@@H]1N2 (racemic) | -4.9
11 | COc1ccc2c(c1)[C@@H]1CN(C(=O)OCc3ccccc3)CC[C@@H]1N2 (racemic) | -5.49
12 | CN1CC[C@@H]2Nc3ccc(O)cc3[C@@H]2C1 (racemic) | -4.68
13 | COc1cc(C)c2c(c1)[C@@H]1CN(C(=O)OCc3ccccc3)CC[C@@H]1N2 (racemic) | -5.29
14 | COC(=O)N1CC[C@@H]2Nc3cc(C)c(OC)c(C)c3[C@@H]2C1 (racemic) | -4.71
15 | CCCOC(=O)N1CC[C@@H]2Nc3cc(C)c(OC)c(C)c3[C@@H]2C1 (racemic) | -5.16
16 | Cc1cc(Br)c2c(c1)[C@@H]1CN(C)CC[C@@H]1N2 (racemic) | -4.8
17 | Cc1cc2c(c(N(C)C)c1)N[C@H]1CCN(C)C[C@@H]21 (racemic) | -4.66
18 | COc1ccc2c(c1)[C@@H]1CN(C(=O)OC(C)(C)C)CC[C@@H]1N2 (racemic) | -5.12
19 | Cc1ccc2c(c1)[C@H]1CN(C)CC[C@H]1N2 [STOBADINE] | -4.6
